{"source": "paper PMC3090270", "about": "(Structure (London, England : 1993), 2010)", "origin": "cited, not measured here", "key": {"cardiac myocytes": {"tested_on": "cardiac myocytes", "settings": "H2O2 treatment, ref Brennan et al., 2006"}, "RI subunits": {"tested_on": "RI subunits", "settings": "ref Huang et al., 1997b (D-AKAP1), 1997a (D-AKAP2), Reinton et al., 2000 (AKAP220), Gronholm et al., 2003 (Merlin), Li et al., 2001 (Pap7)"}}}
{"compound": "OO", "note": "[H2O2]", "values": [{"measurement": "disulfide formation in RIα D/D", "setting": "cardiac myocytes", "value": "increased disulfide bond formation"}, {"measurement": "nuclear localization of PKA", "setting": "cardiac myocytes", "value": "nuclear localization of PKA"}]}
{"compound": "AKAP220: dual-specific AKAP", "values": [{"measurement": "binding to RI subunits (dual-specific)", "setting": "RI subunits", "value": "bind RI subunits"}]}
